Reference: US20080146651A1, “Injectable Composition for the Treatment of Cancers” (priority 2004, published 2008)

Assay: Stability test of paclitaxel according to varying pH values (HPLC residual percentage)
Assay type: physicochemical
Details: for Initial residual percentage (0 hour) / Residual percentage after 24 hours / Residual percentage after 48 hours: 40° C.

- residual percentage (around pH 5, for 48 hours): ≥ 99%
- Initial residual percentage (0 hour) (pH 3, McIlvaine buffer): 100%
- Residual percentage after 24 hours (pH 3, McIlvaine buffer): 99.239%
- Residual percentage after 48 hours (pH 3, McIlvaine buffer): 97.509%
- Initial residual percentage (0 hour) (pH 4, McIlvaine buffer): 100%
- Residual percentage after 24 hours (pH 4, McIlvaine buffer): 99.025%
- Residual percentage after 48 hours (pH 4, McIlvaine buffer): 98.221%
- stability of paclitaxel with the passage of time (pH 4˜6): stable
- residual percentage (pH 4˜6, for 48 hours): ≥ 98%
- Initial residual percentage (0 hour) (pH 5, McIlvaine buffer): 100%
- Residual percentage after 24 hours (pH 5, McIlvaine buffer): 99.414%
- Residual percentage after 48 hours (pH 5, McIlvaine buffer): 99.292%
- Initial residual percentage (0 hour) (pH 6, McIlvaine buffer): 100%
- Residual percentage after 24 hours (pH 6, McIlvaine buffer): 98.765%
- Residual percentage after 48 hours (pH 6, McIlvaine buffer): 98.183%
- Initial residual percentage (0 hour) (pH 7, McIlvaine buffer): 100%
- Residual percentage after 24 hours (pH 7, McIlvaine buffer): 96.109%
- Residual percentage after 48 hours (pH 7, McIlvaine buffer): 94.344%
- Initial residual percentage (0 hour) (pH 8, McIlvaine buffer): 100%
- Residual percentage after 24 hours (pH 8, McIlvaine buffer): 77.297%
- Residual percentage after 48 hours (pH 8, McIlvaine buffer): 57.38%
Compound: CC(=O)O[C@H]1C(=O)[C@@]2(C)[C@H]([C@H](OC(=O)c3ccccc3)[C@]3(O)C[C@H](OC(=O)[C@H](O)[C@@H](NC(=O)c4ccccc4)c4ccccc4)C(C)=C1C3(C)C)[C@]1(OC(C)=O)CO[C@@H]1C[C@@H]2O [paclitaxel]
